Molecules are shown by their SMILES.

A short description of this series: gradient 5% acetonitrile 3 min, to 50% in 2 min, to 85% in 15 min, held 3 min, 100 µL/min. The following applies: column: Zorbax Extend-C18 2.1 x 50 mm; eluents: water / acetonitrile, 0.1% formic acid. Put shortly:
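A Zorbax Extend-C18 column (2.1 × 50 mm, 1.8 μm) run at 100 μL/min with water and acetonitrile, both containing 0.1% formic acid, separated mixtures of ~100 pure standards. The HPLC was coupled to a quadrupole time-of-flight mass spectrometer operated in positive and negative ionization mode, with dead and dwell volumes of 40 μL and 900 μL. Each retention time was taken from a computationally picked adduct peak that was then manually inspected.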
`Cc1cccc(S(=O)(=O)N2CCc3c(C(=O)NCCCN4CCCCC4)cccc32)c1` had an RP-LC retention time of 680 s.

In turn, `CC(C)c1ccc(OCC(=O)Nc2cnn(C)c(=O)c2N2CCOCC2)cc1` displayed an RP-LC retention time of 952 s. Under `O=C(NCCC1=CCCCC1)C1CCN(c2cnc3nccnc3c2)CC1` stands 737 s; under `CCOc1ccccc1C(=O)n1nc(C)c(S(=O)(=O)N2CCCC2)c1C`, 1040 s. Under `COc1ccccc1CNC(=O)Cn1c(N2CCOCC2)nc(C)cc1=O` stands 654 s; under `Cc1c(Cl)cccc1NC(=O)CCCn1cccc1`, 868 s. Under `CCOc1ccccc1N1CCN(C(=O)CSc2nccnc2Oc2ccc(C)cc2)CC1` stands 1020 s; under `COc1ccc(Cc2nc3nccc(-c4cc5ccccc5o4)n3n2)cc1`, 1090 s.

Regarding `COc1ccc(-c2nnc(COc3ccc(NC(=O)c4ccc(Cl)nc4)cc3)o2)cc1`, the RP-LC retention time is 877 s. Under `O=c1c2cnn(-c3ccc(F)cc3)c2ncn1Cc1nc(-c2ccc(Br)cc2)no1` stands 1140 s. In the case of `O=C(CC1CCCC1)NCCC1CCN(C(=O)Nc2ccccc2)CC1` it was 784 s; in that of `CCOc1ccc(NC(=O)N2CCC3(CC2)NC(=O)c2ccc(Cl)cc2N3CC)cc1`, 874 s; in that of `COc1cccc(NC(=O)c2cccn2Cc2noc(C)n2)c1`, 792 s. Compound `O=C1CN(c2ccccc2NC(=O)c2cc(-c3ccccc3)on2)CCN1` returned an RP-LC retention time of 798 s. In the case of `Cn1cc(-c2cc3n(n2)CCC(=O)N3CCCC(=O)Nc2ccc(F)cc2F)c2ccccc21`, the RP-LC retention time is 860 s.

`O=C(Nc1cccs1)Nc1ccccc1NC(=O)c1ccco1` yielded an RP-LC retention time of 716 s. Under `CN1C(=O)c2cc(C(=O)NCCc3ccc(Cl)cc3)nn2CC1(C)C(=O)NCc1ccccc1` (stereo not drawn) stands 823 s; under `O=C(Cn1ccn2nc(-c3ccccc3)c(CO)c2c1=O)Nc1ccc(F)cc1F`, 781 s. In the case of `CCN1C(=O)c2cccnc2Sc2cc(NC(=O)CCc3ccccc3OC)ccc21` it was 871 s; in that of `Cc1cc(Cl)cc2sc(N(Cc3ccccn3)C(=O)CN(C)S(C)(=O)=O)nc12`, 1080 s; in that of `CCn1ccc(-c2nc(-c3ccc4c(c3)ncn4CCC(=O)N3CCCC3)no2)n1`, 642 s. In the case of `Cc1nc2cc(N3CC(C(=O)Nc4ccc(Cl)cc4C)CC3=O)ccc2o1` (stereo not drawn) it was 781 s; in that of `O=S(=O)(NCC(O)C1CCCCC1)c1ccc(OC(F)(F)F)cc1` (stereo not drawn), 949 s.

Compound `O=C(c1cccn1Cc1noc(-c2ccc(Cl)cc2)n1)N1CCCCCC1` returned an RP-LC retention time of 1160 s. For the compound `COCCCNC(=O)CCc1cc2cc(OC)ccc2[nH]c1=O`, the RP-LC retention time was found to be 611 s. In the case of `CCN1CCN(c2cc(C)c3cc(NC(=S)NCCC(C)C)ccc3n2)CC1` it was 588 s; in that of `O=C(Nc1ccc2c(c1)CN(C(=O)C1COc3ccccc3O1)CCO2)C1CC1` (stereo not drawn), 823 s.

Consider `Cc1cc(NC(=O)c2ccc3c(c2)OCO3)sn1`, for which the RP-LC retention time worked out at 682 s. Under `CN(C)c1nc2ncn3c(=O)n(CC(=O)NC4CCCC4)nc3c2s1` stands 647 s; under `CN(Cc1ccccc1)C(=O)CN1C(=O)C(C(=O)N2CCCCCC2)Sc2ccccc21` (stereo not drawn), 945 s; under `O=C(Nc1ccc(F)cc1)C1CCCN(c2ncnc3c2nc2n3CCCCC2)C1` (stereo not drawn), 803 s. `Cn1nccc1C(=O)N1CCC(c2cc(-c3ccc(F)cc3)n[nH]2)CC1` returned an RP-LC retention time of 712 s. With `O=C(NCc1ccc(F)cc1Cl)C1CCCN(c2ncnc3c2oc2ccccc23)C1` (stereo not drawn), the RP-LC retention time was found to be 802 s. Under `Cc1cc2[nH]c(C(=O)Nc3cc(F)c(F)cc3F)c(CN3CCOCC3)c2s1` stands 737 s; under `Nc1nc(SCC(=O)Nc2ccc(F)c(Cl)c2)n[nH]1`, 621 s.

`Cc1cc(C)cc(NC(=O)C2CCN(S(C)(=O)=O)c3cc(Cl)ccc3O2)c1` (stereo not drawn) displayed an RP-LC retention time of 1020 s. In the case of `COc1ccc(-c2cn3c(CC(=O)N4CCOCC4)csc3n2)cc1OC`, the RP-LC retention time turned out to be 607 s. In the case of `O=C(Nc1ccc2c(c1)OCCO2)c1cccc(N2CCNC(c3ccccc3)C2)n1` (stereo not drawn) it was 668 s; in that of `CCOc1ccccc1NC(=O)N1CCN(c2cnn3c(C)nnc3c2)CC1`, 658 s; in that of `CCNS(=O)(=O)c1cc(-c2nnc(-c3ccc(OC)c(OC)c3)o2)ccc1C`, 833 s. Compound `COCCOC1CN(C2CCN(Cc3cccc(C)c3)CC2)C12CCCCC2` (stereo not drawn) came in with an RP-LC retention time of 573 s. In turn, `COC(=O)C1CCN(S(=O)(=O)c2ccc(Cl)c(-c3nnc(-c4ccc(OC)cc4)o3)c2)CC1` gave an RP-LC retention time of 1050 s. In the case of `CCC(Oc1ccc(=O)n(-c2ccc(F)cc2)n1)C(=O)NCCN1CCN(C)CC1` (stereo not drawn) it was 585 s; in that of `COc1ccc(-n2c(=O)n(C)c(=O)c3cc(C(=O)NC(C)c4ccc(F)cc4)cnc32)cc1` (stereo not drawn), 888 s. Take `O=C(c1cn(-c2cc(N3CCCCC3)ncn2)cn1)N1CC=C(c2ccccc2)CC1`: the RP-LC retention time was found to be 1060 s.

In turn, `CC1CCN(S(=O)(=O)c2cccn(CC(=O)NCCC3=CCCCC3)c2=O)CC1` gave an RP-LC retention time of 878 s. Under `COC(=O)c1sc2ccccc2c1S(=O)(=O)N1CCN(c2ccccn2)CC1` stands 752 s; under `Cn1nc(-c2nnc(-c3ccccc3Cl)o2)c2c1CCN(C(=O)c1ccc(C(F)(F)F)cc1)C2`, 943 s. In the case of `COC(=O)c1ccc(NC(=O)Cn2nc3nc(N4CCCC(C)C4)ccn3c2=O)cc1` (stereo not drawn) it was 774 s; in that of `CCc1nc(-c2csc(S(=O)(=O)N3CCCC(C(=O)N(C)c4ccc(C)cc4)C3)c2)no1` (stereo not drawn), 1060 s; in that of `COc1ccccc1-c1nc2nccc(-c3ccc(Cl)cc3)n2n1`, 956 s.

As to `COc1ccccc1NS(=O)(=O)c1ccc(-c2c(C)noc2C)cc1`, the RP-LC retention time amounted to 924 s. Under `Cc1ccc(NC(=O)N2CCC(c3nc(C(=O)N(C)C)c(C)o3)CC2)cc1` stands 705 s; under `COc1ccccc1N1CCN(c2cc(SCC(=O)Nc3cccc(C#N)c3)ncn2)CC1`, 895 s. Consider `COc1ccc(C(=O)N2CC(C(=O)NC3CC3)C(c3ccc(OC)cc3OC)C2)cc1` (stereo not drawn), for which the RP-LC retention time was found to be 703 s. In the case of `CC(C)(C)c1noc(-c2ccc(-n3cnc(C(=O)N4CCSCC4)c3)nc2)n1` it was 963 s. In turn, `Cc1ccc(NC(=O)C(C)Oc2cc(C(F)(F)F)c3c(C)nn(C)c3n2)cc1C` (stereo not drawn) displayed an RP-LC retention time of 586 s.

Consider `CCC[C@H](NC(=O)/C(C#N)=C/c1cccc(Br)n1)c1ccccc1`, for which the RP-LC retention time stood at 684 s.

Values taken from the METLIN SMRT retention time set (Domingo-Almenara et al. 2019).
